Laboratory results taken from patent US5434136A, “Treatment of motility disorders with a GNRH analog” (priority 1992, dated 1995).

Tests used:
[1] = tested on: serum estradiol, progesterone, LH, FSH; test: Serum estradiol, progesterone, FSH and LH by radioimmunoassay before and after three months of leuprolide; format: in vivo, human; details: for Estradiol after 3 months / Progesterone after 3 months / FSH after 3 months / LH after 3 months: serum
Text: The symptoms of the two patients with GMD were abdominal pain located in the right upper quadrant and epigastrium, daily nausea, and intermittent vomiting exacerbated by eating and by the luteal phase of the menstrual cycle. The two patients with IIHVN had abdominal pain, nausea, and intermittent vomiting, and also had urinary tract involvement consisting of pain and a decrease in urination. The fifth patient had Roux-en-Y syndrome (defined as epigastric-to-right-upper-quadrant pain, nausea, and vomiting increased by eating) after surgical construction of a gastro-jejunal Roux-en-Y anastomosis. The mean duration of these symptoms was eight years (Table 1). All subjects had undergone extensive blood testing, several upper gastrointestinal x-ray series, barium enemas, esophagogastroduodenoscopy, endoscopic retrograde cholangiopancreatography, gastric emptying tests with radiolabeled meal, ultrasound of the abdomen, computerized axial tomography of the abdomen, and many other tests. The results of all tests were normal, except for prolonged gastric emptying in the patient with the Roux-en-Y Syndrome. Because of their intractable clinical problem, these patients were included in the test protocol with leuprolide acetate. Protocol: The symptoms of each patient were first assessed, and their tests evaluated. Each patient kept a daily symptom diary. Leuprolide acetate was obtained by prescription as Lupron (TAP pharmaceuticals, Abbott Labs, North Chicago, Ill.). One multi-use vial of Lupron comprised of […] Leuprolide Acetate. A daily dose of 0.5 mg ([…]) was self-administered by subcutaneous injection, for a period of three months. Each patient was examined at 0, 1 and 3 months of treatment. After the third month, leuprolide was continued as previously, and estrogen (0.625 mg orally) and calcium (1000 mg orally) were also administered. At the end of the sixth month, a two week withdrawal period from leuprolide acetate ensued. During this period a 10 mg oral dose of progesterone was given to pre-menopausal patients, to assess recurrence of symptoms and to induce menses. Post-menopausal women were not treated with progesterone during the two week withdrawal period. This procedure was then continued for an additional six months, with drug withdrawal and progesterone given every three months to induce a menstrual cycle. Serum estradiol, progesterone, FSH, and LH were quantitated by radioimmunoassay prior to the initiation of leuprolide treatment, and at three months post treatment initiation.

[2] = tested on: motility of stomach and small intestine; test: Motility recordings (duodenal jejunal manometry) and hydrogen breath test in SLE patients; format: in vivo, human
Protocol: Motility recordings of the stomach and small intestine were performed with a ultraminiature force-transducer probe (Millar Instruments, Houston, Tex.). Pressure readings from the probe were recorded on an R612 physiologic recorder fitted with Model 9872 couplers (SenorMedics, Yorba Linda, Calif.). After the probe was passed transnasally and placed fluoroscopically, a 12 hour recording of the patient was made with the patient in the fasted state. They then drank a 240-ml liquid meal (ENSURE), and the recording was continued for three hours to evaluate conversion from the fasting pattern to fed-state motor activity. During the fasting state, this patient had three poorly formed and disorganized migrating motor complexes, whereas the normal range expected is 6-8, or a mean of 7.4 in the 12 hour recording period. […] The patient was diagnosed as having chronic intestinal pseudo-obstruction associated with sero-negative SLE.

[3] = tested on: migrating motor complexes, jejunum; test: Leuprolide acetate effects on migrating motor complexes in rats; format: in vivo, female Wistar rats; details: for Migrating Motor Complexes, L-Fasted / Migrating Motor Complexes, L-Fed: mean ± SEM
Protocol: Eleven female Wistar rats weighing between 175 and 250 g were each implanted with four bipolar Ag/AgCL electrodes (the preparation of which is described in: Mathias, Am. J. Physiology, 249:[…]-[…], 1981). The electrodes were sewn 5 cm from the Ligament of Trietz and 5 cm apart, onto the jejunal serosa. The number of migrating myoelectric complexes was recorded using a R-612 Dynograph (Sensor-Medics, Anaheim, Calif.). Rats were fasted for 36 hours prior to recording and feeding (no food, liberal water), and were housed in special cages to remove feces. After 36 hours of fasting, Migrating Motor Complexes (MMC) were recorded at a sensitivity of 0.2 mV/cm, 2.5 mm/sec paper speed, and a Time Constant of 1 for a duration of 2 to 4 hours. Immediately following the fasted recording session, the rats were fed 2 biscuits of Purina rat chow with simultaneous recording during feeding and continued for 4 hours. This procedure was followed for 2 to 4 recording sessions prior to the treatment with leuprolide acetate (Controls). Leuprolide acetate was then administered daily, in the morning, subcutaneously in the hind limb at a dose ranging from 2 to 40 ug/100 g body weight. After a period of at least 24 hours post treatment with leuprolide, the fasting/fed recording sessions were begun as described for the controls to obtain recordings through 2 to 4 sessions.

[4] = after three months of treatment vs baseline

## CCNC(=O)[C@@H]1CCCN1C(=O)[C@H](CCCNC(=N)N)NC(=O)[C@H](CC(C)C)NC(=O)[C@@H](CC(C)C)NC(=O)[C@H](Cc1ccc(O)cc1)NC(=O)[C@H](CO)NC(=O)[C@H](Cc1c[nH]c2ccccc12)NC(=O)[C@H](Cc1c[nH]cn1)NC(=O)[C@@H]1CCC(=O)N1 [Leuprolide acetate, leuprolide acetate]
[1]; Patient 1, baseline 44.0 pg/ml
  Estradiol after 3 months: 13.0 pg/mL
[1]; Patient 1, baseline 3.0 n/ml
  Progesterone after 3 months: < 0.25 n/ml
[1]; Patient 1, baseline 12.1 mIU/ml
  FSH after 3 months: 9.0 MIU/ml
[1]; Patient 1, baseline 19.0 mIU/mL
  LH after 3 months: 6.0 mIU/ml
[1]; Patient 2, baseline 44.0 pg/ml
  Estradiol after 3 months: 39.0 pg/mL
[1]; Patient 2, baseline 1.0 n/ml
  Progesterone after 3 months: < 0.25 n/ml
[1]; Patient 2, baseline 13.0 mIU/ml
  FSH after 3 months: 11.0 MIU/ml
[1]; Patient 2, baseline 16.0 mIU/ml
  LH after 3 months: 7.0 mIU/ml
[1]; Patient 3, baseline 28.0 pg/ml
  Estradiol after 3 months: 3.4 pg/mL
[1]; Patient 3, baseline 18.4 mIU/ml
  LH after 3 months: 11.2 mIU/ml
[1]; Patient 3, baseline 32.0 mIU/ml
  FSH after 3 months: 11.2 mIU/ml
[1]; Patient 3, baseline <0.25 n/ml
  Progesterone after 3 months: < 0.25 n/ml
[1]; Patient 4, baseline 20.0 pg/ml
  Estradiol after 3 months: 5.5 pg/mL
[1]; Patient 4, baseline 3.0 n/ml
  Progesterone after 3 months: < 0.25 n/ml
[1]; Patient 4, baseline 13.1 mIU/ml
  FSH after 3 months: 7.9 mIU/ml
[1]; Patient 4, baseline 18.3 mIU/ml
  LH after 3 months: 5.0 MIU/ml
[1]; [4]
  Estradiol and FSH levels: decreased
  Levels of serum progesterone and LH: significant decrease
[2]; SLE patient 4, after six months of therapy, failed to convert before
  Motility pattern upon the liquid meal: converted to the fed state
[2]; SLE patient 4, after six months of therapy, virtually no motility before, normal range 6-8 per 12 hour
  Cycling migrating motor complexes in the motility recording: six
[2]; SLE patient 5, 1.75 mg daily s.c., after six months, absence of motility before
  Migrating motor complexes per 12 hour recording session: Ten
[2]; SLE patient 5, after six months of therapy, failed to convert before
  Motility pattern after intake of the liquid meal: converted to the fed state pattern
[2]; SLE patient 5, after six months of therapy, markedly prolonged before
  Hydrogen breath test (oral to cecal transit time): unchanged
[3]; 2 μg/100 g body weight s.c. daily, control fasted 4.69 ± 0.24
  Migrating Motor Complexes, L-Fasted: 4.60 ± 0.12 MMC/hour
[3]; 2 μg/100 g body weight s.c. daily, control fed 2.60 ± 0.27
  Migrating Motor Complexes, L-Fed: 4.83 ± 0.65 MMC/hour
[3]; 20 μg/100 g body weight s.c. daily, control fasted 4.43 ± 0.25
  Migrating Motor Complexes, L-Fasted: 5.41 ± 0.17 MMC/hour
[3]; 20 μg/100 g body weight s.c. daily, control fed 1.40 ± 0.48
  Migrating Motor Complexes, L-Fed: 4.11 ± 0.22 MMC/hour
[3]; 40 μg/100 g body weight s.c. daily, control fasted 4.75 ± 0.48
  Migrating Motor Complexes, L-Fasted: 4.48 ± 0.12 MMC/hour
[3]; 40 μg/100 g body weight s.c. daily, control fed 2.33 ± 0.33
  Migrating Motor Complexes, L-Fed: 3.45 ± 0.25 MMC/hour
[3]; fed rats
  Dose at which the fed state was replaced by cycling MMCs (as little as): 2 μg/100 g body weight
